Organism: Rattus norvegicus
Test: Open TG-GATES - Regimen: Single
Assay type: toxicity, organism-based, Sprague-Dawley
Design: regimen Single, gender Male, age 6 weeks
Conditions: in vivo, po, route gavage; for TG / TP / gamma-GTP / ALP / AST / BUN / CRE / Ca / Cl / DBIL / GLC / IP / LDH / Na / PL / RALB / TBIL / TC / ALT: tissue Plasma; for APTT / Bas / Eos / Fbg / Hb / Ht / Lym / MCH / MCHC / MCV / Mono / PT / Plat / RBC / Ret / WBC / Neu: tissue Blood; for KIDNEY_L / KIDNEY_R / KIDNEY_TOTAL: tissue Kidney; for LIVER: tissue Liver
[1] = 30 mg/kg, 3 h, dose level Middle
[2] = 30 mg/kg, 6 h, dose level Middle
[3] = 30 mg/kg, 9 h, dose level Middle
[4] = 30 mg/kg, 24 h, dose level Middle
[5] = 100 mg/kg, 3 h, dose level High
[6] = 100 mg/kg, 6 h, dose level High
[7] = 100 mg/kg, 9 h, dose level High
[8] = 100 mg/kg, 24 h, dose level High

Which results are given for `CC(=O)N1CCN(c2ccc(OCC3COC(Cn4ccnc4)(c4ccc(Cl)cc4Cl)O3)cc2)CC1` (stereo unspecified) [KETOCONAZOLE]?
TG (10 mg/kg, 24 h, dose level Low): 94.4 mg/dL; TP (10 mg/kg, 24 h, dose level Low): 5.5 g/dL; gamma-GTP (10 mg/kg, 24 h, dose level Low): 1.2 IU/L; TERMINAL_BW [1]: 196.9 g; APTT [1]: 21.2 s; Bas [1]: 0%; Eos [1]: 0.4%; Fbg [1]: 275.6 mg/dL; Hb [1]: 12.7 g/dL; Ht [1]: 38.1%; Lym [1]: 77.2%; MCH [1]: 21.5 pg; MCHC [1]: 33.2%; MCV [1]: 64.6 fL; Mono [1]: 1.6%; PT [1]: 17.1 s; Plat [1]: 121.6 x10_4/uL; RBC [1]: 590.6 x10_4/ul; Ret [1]: 8.6%; WBC [1]: 75.8 x10_2/uL; KIDNEY_L [1]: 0.9 g; KIDNEY_R [1]: 0.9 g; KIDNEY_TOTAL [1]: 1.8 g; LIVER [1]: 9 g; ALP [1]: 1671.8 IU/L; AST [1]: 77 IU/L; BUN [1]: 11.6 mg/dL; CRE [1]: 0.2 mg/dL; Ca [1]: 10.8 mg/dL; Cl [1]: 105.2 meq/L; DBIL [1]: 0 mg/dL; GLC [1]: 188.2 mg/dL; IP [1]: 8.6 mg/dL; LDH [1]: 205.8 IU/L; Na [1]: 141.2 meq/L; PL [1]: 140.2 mg/dL; RALB [1]: 2.9 g/dL; TBIL [1]: 0.016 mg/dL; TC [1]: 75.8 mg/dL; TG [1]: 54 mg/dL; TP [1]: 5.4 g/dL; gamma-GTP [1]: 1.2 IU/L; TERMINAL_BW [2]: 199.3 g; APTT [2]: 21.8 s; Bas [2]: 0%; Eos [2]: 1%; Fbg [2]: 304.4 mg/dL; Hb [2]: 13.2 g/dL; Ht [2]: 39.5%; Lym [2]: 79.8%; MCH [2]: 21.1 pg; MCHC [2]: 33.5%; MCV [2]: 63.1 fL; Mono [2]: 2.2%; Neu [2]: 15.8%; PT [2]: 16.7 s; Plat [2]: 126 x10_4/uL; RBC [2]: 626.6 x10_4/ul; Ret [2]: 7.8%; WBC [2]: 67.8 x10_2/uL; KIDNEY_L [2]: 0.9 g; KIDNEY_R [2]: 0.9 g; KIDNEY_TOTAL [2]: 1.9 g; LIVER [2]: 8.4 g; ALP [2]: 1604 IU/L; AST [2]: 72.6 IU/L; BUN [2]: 10.2 mg/dL; CRE [2]: 0.2 mg/dL; Ca [2]: 10.9 mg/dL; Cl [2]: 105.6 meq/L; DBIL [2]: 0 mg/dL; GLC [2]: 179.4 mg/dL; IP [2]: 9.4 mg/dL; LDH [2]: 237.8 IU/L; Na [2]: 142 meq/L; PL [2]: 135 mg/dL; RALB [2]: 3.1 g/dL; TBIL [2]: 0.034 mg/dL; TC [2]: 75 mg/dL; TG [2]: 54.6 mg/dL; TP [2]: 5.5 g/dL; gamma-GTP [2]: 1.2 IU/L; TERMINAL_BW [3]: 200.7 g; APTT [3]: 21.4 s; Bas [3]: 0%; Eos [3]: 1%; Fbg [3]: 287 mg/dL; Hb [3]: 13.3 g/dL; Ht [3]: 39.8%; Lym [3]: 77.4%; MCH [3]: 21.4 pg; MCHC [3]: 33.4%; MCV [3]: 63.9 fL; Mono [3]: 1.4%; Neu [3]: 19.8%; PT [3]: 16.8 s; Plat [3]: 127.9 x10_4/uL; RBC [3]: 622.8 x10_4/ul; Ret [3]: 8.5%; WBC [3]: 52.8 x10_2/uL; KIDNEY_L [3]: 1 g; KIDNEY_R [3]: 1 g; KIDNEY_TOTAL [3]: 1.9 g; LIVER [3]: 8.3 g; ALP [3]: 1563 IU/L; AST [3]: 70.6 IU/L; BUN [3]: 10.6 mg/dL; CRE [3]: 0.2 mg/dL; Ca [3]: 10.6 mg/dL; Cl [3]: 105 meq/L; DBIL [3]: 0.002 mg/dL; GLC [3]: 176.2 mg/dL; IP [3]: 10 mg/dL; LDH [3]: 200.6 IU/L; Na [3]: 141.2 meq/L; PL [3]: 123.8 mg/dL; RALB [3]: 3.1 g/dL; TBIL [3]: 0.02 mg/dL; TC [3]: 65.6 mg/dL; TG [3]: 47 mg/dL; TP [3]: 5.4 g/dL; gamma-GTP [3]: 1.2 IU/L; TERMINAL_BW [4]: 217.1 g; APTT [4]: 20.6 s; Bas [4]: 0%; Eos [4]: 1%; Fbg [4]: 320.8 mg/dL; Hb [4]: 12.7 g/dL; Ht [4]: 38.5%; Lym [4]: 75.2%; MCH [4]: 21.1 pg; MCHC [4]: 33.1%; MCV [4]: 64 fL; Mono [4]: 1.6%; Neu [4]: 20.6%; PT [4]: 16.3 s; Plat [4]: 121.7 x10_4/uL; RBC [4]: 602 x10_4/ul; Ret [4]: 7.3%; WBC [4]: 66 x10_2/uL; KIDNEY_L [4]: 1 g; KIDNEY_R [4]: 1 g; KIDNEY_TOTAL [4]: 2 g; LIVER [4]: 10.7 g; ALP [4]: 1798.8 IU/L; ALT [4]: 49.4 IU/L; AST [4]: 75 IU/L; BUN [4]: 15.4 mg/dL; CRE [4]: 0.2 mg/dL; Ca [4]: 10.8 mg/dL; Cl [4]: 106.2 meq/L; DBIL [4]: 0 mg/dL; GLC [4]: 179 mg/dL; IP [4]: 7.5 mg/dL; LDH [4]: 220 IU/L; Na [4]: 142.4 meq/L; PL [4]: 148.8 mg/dL; RALB [4]: 3 g/dL; TBIL [4]: 0.004 mg/dL; TC [4]: 77.2 mg/dL; TG [4]: 102.2 mg/dL; TP [4]: 5.5 g/dL; gamma-GTP [4]: 1.4 IU/L; TERMINAL_BW [5]: 205.8 g; APTT [5]: 21.1 s; Bas [5]: 0%; Eos [5]: 0.8%; Fbg [5]: 280.8 mg/dL; Hb [5]: 13 g/dL; Ht [5]: 38.6%; Lym [5]: 81.4%; MCH [5]: 21.1 pg; MCHC [5]: 33.5%; MCV [5]: 62.9 fL; Mono [5]: 1.8%; Neu [5]: 15.2%; PT [5]: 16.9 s; Plat [5]: 125.7 x10_4/uL; RBC [5]: 615.2 x10_4/ul; Ret [5]: 8.6%; WBC [5]: 103.8 x10_2/uL; KIDNEY_L [5]: 1 g; KIDNEY_R [5]: 1 g; KIDNEY_TOTAL [5]: 1.9 g; LIVER [5]: 9.5 g; ALP [5]: 1893.6 IU/L; AST [5]: 73.6 IU/L; BUN [5]: 11.6 mg/dL; CRE [5]: 0.1 mg/dL; Ca [5]: 10.8 mg/dL; Cl [5]: 104.6 meq/L; DBIL [5]: 0 mg/dL; GLC [5]: 190.8 mg/dL; IP [5]: 9.2 mg/dL; LDH [5]: 182.4 IU/L; Na [5]: 140.4 meq/L; PL [5]: 151.8 mg/dL; RALB [5]: 2.9 g/dL; TBIL [5]: 0.016 mg/dL; TC [5]: 85 mg/dL; TG [5]: 59.4 mg/dL; TP [5]: 5.3 g/dL; gamma-GTP [5]: 1 IU/L; TERMINAL_BW [6]: 197.9 g; APTT [6]: 21.5 s; Bas [6]: 0%; Eos [6]: 0.6%; Fbg [6]: 290.8 mg/dL; Hb [6]: 13.4 g/dL; Ht [6]: 39.8%; Lym [6]: 80.4%; MCH [6]: 21.4 pg; MCV [6]: 63.6 fL; Mono [6]: 2%; Neu [6]: 15%; PT [6]: 16.6 s; Plat [6]: 127.9 x10_4/uL; RBC [6]: 625.8 x10_4/ul; Ret [6]: 7.5%; WBC [6]: 69 x10_2/uL; KIDNEY_L [6]: 0.9 g; KIDNEY_R [6]: 0.9 g; KIDNEY_TOTAL [6]: 1.8 g; LIVER [6]: 8.7 g; ALP [6]: 1551.6 IU/L; AST [6]: 68.8 IU/L; BUN [6]: 8.8 mg/dL; CRE [6]: 0.2 mg/dL; Ca [6]: 10.9 mg/dL; Cl [6]: 105.2 meq/L; DBIL [6]: 0 mg/dL; GLC [6]: 191.2 mg/dL; IP [6]: 9.9 mg/dL; LDH [6]: 257.2 IU/L; Na [6]: 141.4 meq/L; PL [6]: 142.8 mg/dL; RALB [6]: 3 g/dL; TBIL [6]: 0.02 mg/dL; TC [6]: 74.2 mg/dL; TG [6]: 94.2 mg/dL; TP [6]: 5.4 g/dL; gamma-GTP [6]: 1 IU/L; TERMINAL_BW [7]: 199.2 g; APTT [7]: 20.8 s; Bas [7]: 0%; Eos [7]: 1%; Fbg [7]: 298 mg/dL; Ht [7]: 38.7%; Lym [7]: 80.6%; MCH [7]: 21.2 pg; MCV [7]: 62.9 fL; Mono [7]: 1.6%; Neu [7]: 15.8%; PT [7]: 16.9 s; Plat [7]: 124.7 x10_4/uL; RBC [7]: 615.4 x10_4/ul; Ret [7]: 8.1%; WBC [7]: 80.7 x10_2/uL; KIDNEY_L [7]: 0.9 g; KIDNEY_R [7]: 0.9 g; KIDNEY_TOTAL [7]: 1.8 g; LIVER [7]: 8.1 g; ALP [7]: 1393.4 IU/L; AST [7]: 63.2 IU/L; BUN [7]: 7.4 mg/dL; CRE [7]: 0.2 mg/dL; Ca [7]: 10.7 mg/dL; Cl [7]: 106 meq/L; DBIL [7]: 0 mg/dL; GLC [7]: 198 mg/dL; IP [7]: 9.3 mg/dL; LDH [7]: 179 IU/L; Na [7]: 142.2 meq/L; PL [7]: 137.4 mg/dL; RALB [7]: 2.9 g/dL; TBIL [7]: 0.02 mg/dL; TC [7]: 73.4 mg/dL; TG [7]: 55.2 mg/dL; TP [7]: 5.3 g/dL; gamma-GTP [7]: 1.2 IU/L; TERMINAL_BW [8]: 216.3 g; APTT [8]: 21.5 s; Bas [8]: 0%; Eos [8]: 0.4%; Fbg [8]: 304.2 mg/dL; Hb [8]: 13.3 g/dL; Ht [8]: 39.9%; Lym [8]: 74.8%; MCH [8]: 21.4 pg; MCHC [8]: 33.2%; MCV [8]: 64.4 fL; Mono [8]: 2%; Neu [8]: 21.4%; PT [8]: 16.4 s; Plat [8]: 127 x10_4/uL; RBC [8]: 621 x10_4/ul; Ret [8]: 8%; WBC [8]: 71.7 x10_2/uL; KIDNEY_L [8]: 1 g; KIDNEY_R [8]: 1 g; KIDNEY_TOTAL [8]: 2 g; LIVER [8]: 11 g; ALP [8]: 1882.6 IU/L; ALT [8]: 55.8 IU/L; AST [8]: 89.8 IU/L; BUN [8]: 15.8 mg/dL; CRE [8]: 0.2 mg/dL; Ca [8]: 10.7 mg/dL; Cl [8]: 105.4 meq/L; DBIL [8]: 0 mg/dL; GLC [8]: 180.4 mg/dL; IP [8]: 8.4 mg/dL; LDH [8]: 226.4 IU/L; Na [8]: 142.2 meq/L; PL [8]: 147 mg/dL; RALB [8]: 2.9 g/dL; TBIL [8]: 0.004 mg/dL; TC [8]: 79.4 mg/dL; TG [8]: 88.6 mg/dL; TP [8]: 5.4 g/dL; gamma-GTP [8]: 1 IU/L

From ChEMBL document CHEMBL3885861, “Open TG-GATES”
